Test results from patent US20250302815A1, “PROTEIN TYROSINE PHOSPHATASE TARGETING LIGANDS” (CALICO LIFE SCIENCES LLC, priority 2021, published 2025).
Values joined by “and” are separate entries in the source; they are usually repeats but may differ in a detail not shown here. Equal values may be shown once.

Experiments:
[1] = target: T1, PTPN2 (B16F10.4 cells) (Mus musculus, UniProt Q06180); test: HiBiT Degradation B16F10.4 PTPN2; type: cell-based; settings: 24.0 hours
T1 construct: HiBiT; host or cells: B16F10.4
T1 sequence (Q06180 1-406): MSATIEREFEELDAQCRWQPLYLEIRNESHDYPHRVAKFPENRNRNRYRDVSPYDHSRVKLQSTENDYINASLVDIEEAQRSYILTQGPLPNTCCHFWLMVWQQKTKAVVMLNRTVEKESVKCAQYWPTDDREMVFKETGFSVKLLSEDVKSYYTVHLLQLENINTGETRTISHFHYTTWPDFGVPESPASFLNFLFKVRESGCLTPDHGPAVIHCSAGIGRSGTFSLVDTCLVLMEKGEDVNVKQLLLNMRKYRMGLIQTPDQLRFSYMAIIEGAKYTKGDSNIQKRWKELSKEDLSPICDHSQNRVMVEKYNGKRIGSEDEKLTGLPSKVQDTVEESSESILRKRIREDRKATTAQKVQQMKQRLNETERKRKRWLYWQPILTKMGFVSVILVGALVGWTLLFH

[2] = target: T2, PTPN2 (HiBIT-PTPN2 in 293T.109 cells) (Homo sapiens, UniProt P17706); test: HiBiT Degradation 293T.109 PTPN2 (Nano-Glo HiBiT Lytic Assay); type: cell-based; settings: 24.0 hours
T2 construct: expressed in transfected cells; host or cells: 293T.109 (293T WT from ATCC)
T2 sequence (P17706 1-415): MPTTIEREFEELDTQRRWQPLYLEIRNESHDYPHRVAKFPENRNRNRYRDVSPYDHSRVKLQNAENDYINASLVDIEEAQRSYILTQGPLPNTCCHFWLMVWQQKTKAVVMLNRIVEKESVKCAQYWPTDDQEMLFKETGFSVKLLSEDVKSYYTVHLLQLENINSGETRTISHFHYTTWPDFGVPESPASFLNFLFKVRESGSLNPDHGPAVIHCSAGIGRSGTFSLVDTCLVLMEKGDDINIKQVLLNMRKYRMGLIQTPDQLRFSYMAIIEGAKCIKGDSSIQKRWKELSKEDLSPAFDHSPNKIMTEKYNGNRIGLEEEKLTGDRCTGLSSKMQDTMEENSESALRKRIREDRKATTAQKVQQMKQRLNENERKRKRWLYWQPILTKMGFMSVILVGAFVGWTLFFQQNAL
How it was run: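 293T.109 cells with ectopic N-terminal HiBiT-tagged PTPN2 (5000/well) exposed to compounds for 24 h at 37 °C, 5% CO2; 11-point half-log titration from 10 μM top, duplicates. Remaining HiBiT-PTPN2 read as luminescence with Nano-Glo HiBiT lytic reagent, normalised to untreated cells (0%) and reagent-free wells.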

CC1(C)C[C@@H](Nc2cccc(-c3sc(C(=O)O)c(OCC(=O)O)c3Cl)c2)CCN1S(=O)(=O)Cc1cccc(NC(=O)C2CN(C(=O)COc3cccc4c3CN(C3CCC(=O)NC3=O)C4=O)C2)c1 (some centres unmarked) [Example 74] was tested. Which DC50 [1] did it give?
The DC50 was no less than 1000 nM.

What about the DC50 [2] of the same molecule?
The DC50 was less than 50 nM.

What does the source list for O=C(O)COc1c(C(=O)O)sc(-c2cccc(NC3CCN(S(=O)(=O)Cc4cccc(NC(=O)C5CN(C(=O)CNc6cccc7c6CN(C6CCC(=O)NC6=O)C7=O)C5)c4F)CC3)c2)c1Cl (centres unmarked) [Example 75]?
DC50 [1]: ≥ 1000 nM; DC50 [2]: < 50 nM

What does the source list for CC1(C)C[C@@H](Nc2cccc(-c3sc(C(=O)O)c(OCC(=O)O)c3Cl)c2)CCN1S(=O)(=O)Cc1cccc(NC(=O)N2CCC(Oc3ccc4c(c3)CN(C3CCC(=O)NC3=O)C4=O)CC2)c1 (some centres unmarked) [Example 76]?
DC50 [1]: ≥ 1000 nM; DC50 [2]: 200 to 1000 nM

Which results are given for O=C(O)COc1c(C(=O)O)sc(-c2cccc(NC3CCN(S(=O)(=O)Cc4ccc(F)c(NC(=O)C5CCN(C(=O)CNc6cccc7c6CN(C6CCC(=O)NC6=O)C7=O)CC5)c4)CC3)c2)c1Cl (centres unmarked) [Example 77]?
DC50 [1]: ≥ 1000 nM; DC50 [2]: 50 to 200 nM

Which DC50 [1] does the source give for O=C(O)COc1c(C(=O)O)sc(-c2cccc(NC3CCN(S(=O)(=O)Cc4ccc(F)c(NC(=O)C5CN(C(=O)CNc6cccc7c6CN(C6CCC(=O)NC6=O)C7=O)C5)c4)CC3)c2)c1Cl (centres unmarked) [Example 78] here?
The DC50 was no less than 1000 nM.

And the DC50 [2]?
The DC50 was less than 50 nM.

Cn1c(=O)n(C2CCC(=O)NC2=O)c2ccc(NC3CN(C(=O)Nc4cccc(CS(=O)(=O)N5CC[C@H](Nc6cccc(-c7sc(C(=O)O)c(OCC(=O)O)c7Cl)c6)CC5(C)C)c4)C3)cc21 (some centres unmarked) [Example 79] was tested. Which DC50 [1] did it give?
Its DC50 is 50 to 200 nM.

What about the DC50 [2] of the same molecule?
The DC50 was less than 50 nM.

What does the source list for Cn1c(=O)n(C2CCC(=O)NC2=O)c2ccc(N3CCN(C(=O)Nc4cccc(CS(=O)(=O)N5CC[C@H](Nc6cccc(-c7sc(C(=O)O)c(OCC(=O)O)c7Cl)c6)CC5(C)C)c4)CC3)cc21 (stereo partly drawn) [Example 80, 3-(Carboxymethoxy)-4-chloro-5-[3-[[(4S)-1-[[3-[[4-[1-(2,6-dioxo-3-piperidyl)-3-methyl-2-oxo-benzimidazol-5-yl]piperazine-1-carbonyl]amino]phenyl]methylsulfonyl]-2,2-dimethyl-4-piperidyl]amino]phenyl]thiophene-2-carboxylic acid]?
DC50 [1]: 50 to 200 nM; DC50 [2]: 50 to 200 nM

Cn1c(=O)n(C2CCC(=O)NC2=O)c2ccc(NC3CCN(C(=O)Nc4cccc(CS(=O)(=O)N5CC[C@H](Nc6cccc(-c7sc(C(=O)O)c(OCC(=O)O)c7Cl)c6)CC5(C)C)c4)CC3)cc21 (stereo partly drawn) [Example 81, 3-(carboxymethoxy)-4-chloro-5-[3-[[(4S)-1-[[3-[[4-[[1-(2,6-dioxo-3-piperidyl)-3-methyl-2-oxo-benzimidazol-5-yl]amino]piperidine-1-carbonyl]amino]phenyl]methylsulfonyl]-2,2-dimethyl-4-piperidyl]amino]phenyl]thiophene-2-carboxylic acid] was tested. Which DC50 [1] did it give?
The DC50 was 50 to 200 nM.

What about the DC50 [2] of the same molecule?
The DC50 was 50 to 200 nM.

For CC1(C)C[C@@H](Nc2cccc(-c3sc(C(=O)O)c(OCC(=O)O)c3Cl)c2)CCN1S(=O)(=O)Cc1cccc(NC(=O)N2CCC(c3ccc4c5c(cccc35)C(=O)N4C3CCC(=O)NC3=O)CC2)c1 (stereo partly drawn) [Example 82, 3-(carboxymethoxy)-4-chloro-5-[3-[[(4S)-1-[[3-[[4-[1-(2,6-dioxo-3-piperidyl)-2-oxo-benzo[cd]indol-6-yl]piperidine-1-carbonyl]amino]phenyl]methylsulfonyl]-2,2-dimethyl-4-piperidyl]amino]phenyl]thiophene-2-carboxylic acid], which DC50 [1] is on record?
The DC50 was less than 50 nM.

What about the DC50 [2] of the same molecule?
Its DC50 is less than 50 nM.

Which DC50 [1] does the source give for CC1(C)C[C@@H](Nc2cccc(-c3sc(C(=O)O)c(OCC(=O)O)c3Cl)c2)CCN1S(=O)(=O)Cc1cccc(NC(=O)CN2CCC(c3ccc4c5c(cccc35)C(=O)N4C3CCC(=O)NC3=O)CC2)c1 (stereo partly drawn) [Example 83, 3-(carboxymethoxy)-4-chloro-5-[3-[[(4S)-1-[[3-[[2-[4-[1-(2,6-dioxo-3-piperidyl)-2-oxo-benzo[cd]indol-6-yl]-1-piperidyl]acetyl]amino]phenyl]methylsulfonyl]-2,2-dimethyl-4-piperidyl]amino]phenyl]thiophene-2-carboxylic acid] here?
The DC50 was 50 to 200 nM.

What about the DC50 [2] of the same molecule?
The DC50 was less than 50 nM.

What does the source list for CC1(C)C[C@@H](Nc2cccc(-c3sc(C(=O)O)c(OCC(=O)O)c3Cl)c2)CCN1S(=O)(=O)Cc1cccc(NC(=O)N2CCC(C(=O)NCc3cccc4c3CN(C3CCC(=O)NC3=O)C4=O)CC2)c1 (stereo partly drawn) [Example 84, 3-(carboxymethoxy)-4-chloro-5-[3-[[(4S)-1-[[3-[[4-[[2-(2,6-dioxo-3-piperidyl)-1-oxo-isoindolin-4-yl]methylcarbamoyl]piperidine-1-carbonyl]amino]phenyl]methylsulfonyl]-2,2-dimethyl-4-piperidyl]amino]phenyl]thiophene-2-carboxylic acid]?
DC50 [1]: ≥ 1000 nM; DC50 [2]: 200 to 1000 nM

For CC1(C)C[C@@H](Nc2cccc(-c3sc(C(=O)O)c(OCC(=O)O)c3Cl)c2)CCN1S(=O)(=O)Cc1cccc(NC(=O)OC2CCN(C(=O)CNc3cccc4c3CN(C3CCC(=O)NC3=O)C4=O)CC2)c1 (some centres unmarked) [Example 85], which DC50 [1] is on record?
Its DC50 is 200 to 1000 nM.

What about the DC50 [2] of the same molecule?
Its DC50 is 50 to 200 nM.

How did the DC50 [1] turn out when CC1(C)C[C@@H](Nc2cccc(-c3sc(C(=O)O)c(OCC(=O)O)c3Cl)c2)CCN1S(=O)(=O)Cc1cccc(NC(=O)[C@H]2CC[C@H](C(=O)Nc3cccc4c3CN(C3CCC(=O)NC3=O)C4=O)CC2)c1 (stereo partly drawn) [Example 86, 3-(carboxymethoxy)-4-chloro-5-(3-(((4S)-1-((3-((1r,4R)-4-((2-(2,6-dioxopiperidin-3-yl)-1-oxoisoindolin-4-yl)carbamoyl)cyclohexane-1-carboxamido)benzyl)sulfonyl)-2,2-dimethylpiperidin-4-yl)amino)phenyl)thiophene-2-carboxylic acid] was run?
Its DC50 is 200 to 1000 nM.

What about the DC50 [2] of the same molecule?
Its DC50 is 50 to 200 nM.

With CC(C)n1c(=O)n(C2CCC(=O)NC2=O)c2ccc(C3CCN(C(=O)Nc4cccc(CS(=O)(=O)N5CC[C@H](Nc6cccc(-c7sc(C(=O)O)c(OCC(=O)O)c7Cl)c6)CC5(C)C)c4)CC3)cc21 (stereo partly drawn) [Example 87, 3-(carboxymethoxy)-4-chloro-5-[3-[[(4S)-1-[[3-[[4-[1-(2,6-dioxo-3-piperidyl)-3-isopropyl-2-oxo-benzimidazol-5-yl]piperidine-1-carbonyl]amino]phenyl]methylsulfonyl]-2,2-dimethyl-4-piperidyl]amino]phenyl]thiophene-2-carboxylic acid] as the molecule, how does the DC50 [1] read?
The DC50 was 50 to 200 nM and < 50 nM.

What about the DC50 [2] of the same molecule?
The DC50 was 50 to 200 nM.

How did the DC50 [1] turn out when CCn1c(=O)n(C2CCC(=O)NC2=O)c2ccc(C3CCN(C(=O)Nc4cccc(CS(=O)(=O)N5CC[C@H](Nc6cccc(-c7sc(C(=O)O)c(OCC(=O)O)c7Cl)c6)CC5(C)C)c4)CC3)cc21 (stereo partly drawn) [Example 88, 3-(carboxymethoxy)-4-chloro-5-(3-(((4S)-1-((3-(4-(1-(2,6-dioxopiperidin-3-yl)-3-ethyl-2-oxo-2,3-dihydro-1H-benzo[d]imidazol-5-yl)piperidine-1-carboxamido)benzyl)sulfonyl)-2,2-dimethylpiperidin-4-yl)amino)phenyl)thiophene-2-carboxylic acid] was run?
Its DC50 is 50 to 200 nM.

What about the DC50 [2] of the same molecule?
The DC50 was less than 50 nM.

How did the DC50 [1] turn out when CC1(C)C[C@@H](Nc2cccc(-c3sc(C(=O)O)c(OCC(=O)O)c3Cl)c2)CCN1S(=O)(=O)Cc1cccc(NC(=O)COC2CCN(C(=O)CNc3cccc4c3CN(C3CCC(=O)NC3=O)C4=O)CC2)c1 (some centres unmarked) [Example 90] was run?
Its DC50 is 200 to 1000 nM.

What about the DC50 [2] of the same molecule?
Its DC50 is less than 50 nM.

Cn1c(=O)n(C2CCC(=O)NC2=O)c2ccc(C#CCNC(=O)Nc3cccc(CS(=O)(=O)N4CC[C@H](Nc5cccc(-c6sc(C(=O)O)c(OCC(=O)O)c6Cl)c5)CC4(C)C)c3)cc21 (stereo partly drawn) [Example 91, 3-(carboxymethoxy)-4-chloro-5-(3-(((4S)-1-((3-(3-(3-(1-(2,6-dioxopiperidin-3-yl)-3-methyl-2-oxo-2,3-dihydro-1H-benzo[d]imidazol-5-yl)prop-2-yn-1-yl)ureido)benzyl)sulfonyl)-2,2-dimethylpiperidin-4-yl)amino)phenyl)thiophene-2-carboxylic acid] was tested. Which DC50 [1] did it give?
The DC50 was 50 to 200 nM.

What about the DC50 [2] of the same molecule?
The DC50 was 50 to 200 nM.

CC1(C)C[C@@H](Nc2cccc(-c3sc(C(=O)O)c(OCC(=O)O)c3Cl)c2)CCN1S(=O)(=O)Cc1cccc(NC(=O)COC2CN(C(=O)CNc3cccc4c3CN(C3CCC(=O)NC3=O)C4=O)C2)c1 (some centres unmarked) [Example 92] was tested. Which DC50 [1] did it give?
The DC50 was 200 to 1000 nM.

What about the DC50 [2] of the same molecule?
The DC50 was 50 to 200 nM.

What does the source list for O=C(O)COc1c(C(=O)O)sc(-c2cccc(NC3CCN(S(=O)(=O)Cc4ccc(F)c(NC(=O)C5CN(C(=O)COc6cccc7c6CN(C6CCC(=O)NC6=O)C7=O)C5)c4)CC3)c2)c1Cl (centres unmarked) [Example 93]?
DC50 [1]: 200 to 1000 nM; DC50 [2]: 50 to 200 nM
